According to patent publication US20090270350A1, “Pyridinone Pyrazole Urea and Pyrimidinone Pyrazole Urea Derivatives” (PFIZER INC., priority 2006, published 2009):

| SMILES | melting point |
| --- | --- |
| COC(=O)c1ccc(C)c(-n2c(C)cc(OCc3ccccc3CNC(=O)Nc3cc(C(C)(C)C)nn3-c3ccc(O)cc3)c(Cl)c2=O)c1 [Example 135, 3-[4-(2-{3-[5-tert-butyl-2-(4-hydroxy-phenyl)-2H-pyrazol-3-yl]-ureidomethyl}-benzyloxy)-3-chloro-6-methyl-2-oxo-2H-pyridin-1-yl]-4-methyl-benzoic acid methyl ester] | 199 to 200 °C |
| COC(=O)c1ccc(C)c(-n2c(C)cc(OCc3ccc(F)cc3CNC(=O)Nc3cc(C(C)(C)C)nn3-c3ccc(O)cc3)c(Cl)c2=O)c1 [Example 136, 3-[4-(2-{3-[5-tert-butyl-2-(4-hydroxy-phenyl)-2H-pyrazol-3-yl]-ureidomethyl}-4-fluoro-benzyloxy)-3-chloro-6-methyl-2-oxo-2H-pyridin-1-yl]-4-methyl-benzoic acid methyl ester] | 188 to 190 °C |
| COC(=O)c1ccc(C)c(-n2c(C)cc(OCc3ccccc3CNC(=O)Nc3cc(C(C)(C)C)nn3-c3ccc(O)c(Cl)c3)c(Cl)c2=O)c1 [Example 137, 3-[4-(2-{3-[5-tert-butyl-2-(3-chloro-4-hydroxy-phenyl)-2H-pyrazol-3-yl]-ureidomethyl}-benzyloxy)-3-chloro-6-methyl-2-oxo-2H-pyridin-1-yl]-4-methyl-benzoic acid methyl ester] | 185 to 186 °C |
| COC(=O)c1ccc(C)c(-n2c(C)cc(OCc3ccccc3CNC(=O)Nc3cc(C(C)(C)C)nn3-c3ccc(Cl)c(O)c3)c(Cl)c2=O)c1 [Example 138, 3-[4-(2-{3-[5-tert-butyl-2-(4-chloro-3-hydroxy-phenyl)-2H-pyrazol-3-yl]-ureidomethyl}-benzyloxy)-3-chloro-6-methyl-2-oxo-2H-pyridin-1-yl]-4-methyl-benzoic acid methyl ester] | 193 to 195 °C |
| COC(=O)c1ccc(C)c(-n2c(C)cc(OCc3ccc(F)cc3CNC(=O)Nc3cc(C(C)(C)C)nn3-c3ccc(O)c(Cl)c3)c(Cl)c2=O)c1 [Example 140, 3-[4-(2-{3-[5-tert-butyl-2-(3-chloro-4-hydroxy-phenyl)-2H-pyrazol-3-yl]-ureidomethyl}-4-fluoro-benzyloxy)-3-chloro-6-methyl-2-oxo-2H-pyridin-1-yl]-4-methyl-benzoic acid methyl ester] | 197 to 200 °C |
| CNC(=O)c1ccc(C)c(-n2c(C)cc(OCc3ccccc3CNC(=O)Nc3cc(C(C)(C)C)nn3-c3ccc(O)c(Cl)c3)c(Cl)c2=O)c1 [Example 153, 3-[4-(2-{3-[5-tert-butyl-2-(3-chloro-4-hydroxy-phenyl)-2H-pyrazol-3-yl]-ureidomethyl}-benzyloxy)-3-chloro-6-methyl-2-oxo-2H-pyridin-1-yl]-4,N-dimethyl-benzamide] | 201 to 203 °C |
| COCCNC(=O)c1ccc(C)c(-n2c(C)cc(OCc3ccccc3CNC(=O)Nc3cc(C(C)(C)C)nn3-c3ccc(O)c(Cl)c3)c(Cl)c2=O)c1 [Example 155, 3-[4-(2-{3-[5-tert-butyl-2-(3-chloro-4-hydroxy-phenyl)-2H-pyrazol-3-yl]-ureidomethyl}-benzyloxy)-3-chloro-6-methyl-2-oxo-2H-pyridin-1-yl]-N-(2-methoxy-ethyl)-4-methyl-benzamide] | 179 to 180 °C |
| Cc1ccc(C(=O)NCCN(C)C)cc1-n1c(C)cc(OCc2ccccc2CNC(=O)Nc2cc(C(C)(C)C)nn2-c2ccc(O)c(Cl)c2)c(Cl)c1=O [Example 158, 3-[4-(2-{3-[5-tert-butyl-2-(3-chloro-4-hydroxy-phenyl)-2H-pyrazol-3-yl]-ureidomethyl}-benzyloxy)-3-chloro-6-methyl-2-oxo-2H-pyridin-1-yl]-N-(2-dimethylamino-ethyl)-4-methyl-benzamide] | 181 to 182 °C |
| Cc1ccc(C(=O)NCC(N)=O)cc1-n1c(C)cc(OCc2ccccc2CNC(=O)Nc2cc(C(C)(C)C)nn2-c2ccc(O)c(Cl)c2)c(Cl)c1=O [Example 160, 3-[4-(2-{3-[5-tert-butyl-2-(3-chloro-4-hydroxy-phenyl)-2H-pyrazol-3-yl]-ureidomethyl}-benzyloxy)-3-chloro-6-methyl-2-oxo-2H-pyridin-1-yl]-N-carbamoylmethyl-4-methyl-benzamide] | 228 to 230 °C |
| CNC(=O)c1ccc(C)c(-n2c(C)cc(OCc3ccccc3CNC(=O)Nc3cc(C(C)(C)C)nn3-c3ccc(Cl)c(O)c3)c(Cl)c2=O)c1 [Example 161, 3-[4-(2-{3-[5-tert-butyl-2-(4-chloro-3-hydroxy-phenyl)-2H-pyrazol-3-yl]-ureidomethyl}-benzyloxy)-3-chloro-6-methyl-2-oxo-2H-pyridin-1-yl]-4,N-dimethyl-benzamide] | 201 to 203 °C |
| COCCNC(=O)c1ccc(C)c(-n2c(C)cc(OCc3ccccc3CNC(=O)Nc3cc(C(C)(C)C)nn3-c3ccc(Cl)c(O)c3)c(Cl)c2=O)c1 [Example 163, 3-[4-(2-{3-[5-tert-butyl-2-(4-chloro-3-hydroxy-phenyl)-2H-pyrazol-3-yl]-ureidomethyl}-benzyloxy)-3-chloro-6-methyl-2-oxo-2H-pyridin-1-yl]-N-(2-methoxy-ethyl)-4-methyl-benzamide] | 182 to 183 °C |
| COCCNC(=O)c1ccc(C)c(-n2c(C)cc(OCc3ccc(F)cc3CNC(=O)Nc3cc(C(C)(C)C)nn3-c3ccc(Cl)c(O)c3)c(Cl)c2=O)c1 [Example 164, 3-[4-(2-{3-[5-tert-butyl-2-(4-chloro-3-hydroxy-phenyl)-2H-pyrazol-3-yl]-ureidomethyl}-4-fluoro-benzyloxy)-3-chloro-6-methyl-2-oxo-2H-pyridin-1-yl]-N-(2-methoxy-ethyl)-4-methyl-benzamide] | 186 to 187 °C |
| Cc1ccc(C(=O)NCCN(C)C)cc1-n1c(C)cc(OCc2ccccc2CNC(=O)Nc2cc(C(C)(C)C)nn2-c2ccc(Cl)c(O)c2)c(Cl)c1=O [Example 165, 3-[4-(2-{3-[5-tert-butyl-2-(4-chloro-3-hydroxy-phenyl)-2H-pyrazol-3-yl]-ureidomethyl}-benzyloxy)-3-chloro-6-methyl-2-oxo-2H-pyridin-1-yl]-N-(2-dimethylamino-ethyl)-4-methyl-benzamide] | 185 to 186 °C |
| Cc1ccc(C(=O)NCCN(C)C)cc1-n1c(C)cc(OCc2ccc(F)cc2CNC(=O)Nc2cc(C(C)(C)C)nn2-c2ccc(Cl)c(O)c2)c(Cl)c1=O [Example 166, 3-[4-(2-{3-[5-tert-Butyl-2-(4-chloro-3-hydroxy-phenyl)-2H-pyrazol-3-yl]-ureidomethyl}-4-fluoro-benzyloxy)-3-chloro-6-methyl-2-oxo-2H-pyridin-1-yl]-N-(2-dimethylamino-ethyl)-4-methyl-benzamide] | 177 to 178 °C |
| CNC(=O)c1ccc(C)c(-n2c(C)cc(OCc3ccc(F)cc3CNC(=O)Nc3cc(C(C)(C)C)nn3-c3ccc(O)c(Cl)c3)c(Cl)c2=O)c1 [Example 169, 3-[4-(2-{3-[5-tert-butyl-2-(3-chloro-4-hydroxy-phenyl)-2H-pyrazol-3-yl]-ureidomethyl}-4-fluoro-benzyloxy)-3-chloro-6-methyl-2-oxo-2H-pyridin-1-yl]-4,N-dimethyl-benzamide] | 177 to 180 °C |

Results, then the compound that gave them:

| melting point | SMILES |
| --- | --- |
| 168 to 170 °C | CNC(=O)c1ccc(C)c(-n2c(C)cc(OCc3ccccc3CNC(=O)Nc3cc(C(C)(C)C)nn3-c3cccc(OCCO)c3)c(Cl)c2=O)c1 [Example 133, 3-{4-[2-(3-{5-tert-butyl-2-[3-(2-hydroxy-ethoxy)-phenyl]-2H-pyrazol-3-yl}-ureidomethyl)-benzyloxy]-3-chloro-6-methyl-2-oxo-2H-pyridin-1-yl}-4,N-dimethyl-benzamide] |
| 158 to 160 °C | Cc1ccc(C(=O)NCC(O)CO)cc1-n1c(C)cc(OCc2ccccc2CNC(=O)Nc2cc(C(C)(C)C)nn2-c2cccc(OCCO)c2)c(Cl)c1=O (centres unmarked) [Example 134, 3-{4-[2-(3-{5-tert-Butyl-2-[3-(2-hydroxy-ethoxy)-phenyl]-2H-pyrazol-3-yl}-ureidomethyl)-benzyloxy]-3-chloro-6-methyl-2-oxo-2H-pyridin-1-yl}-N-(2,3-dihydroxy-propyl)-4-methyl-benzamide] |
| 195 to 196 °C | Cc1ccc(C(=O)NCCO)cc1-n1c(C)cc(OCc2ccccc2CNC(=O)Nc2cc(C(C)(C)C)nn2-c2ccc(O)c(Cl)c2)c(Cl)c1=O [Example 154, 3-[4-(2-{3-[5-tert-butyl-2-(3-chloro-4-hydroxy-phenyl)-2H-pyrazol-3-yl]-ureidomethyl}-benzyloxy)-3-chloro-6-methyl-2-oxo-2H-pyridin-1-yl]-N-(2-hydroxy-ethyl)-4-methyl-benzamide] |
| 173 to 175 °C | Cc1ccc(C(=O)NCC(O)CO)cc1-n1c(C)cc(OCc2ccccc2CNC(=O)Nc2cc(C(C)(C)C)nn2-c2ccc(O)c(Cl)c2)c(Cl)c1=O (centres unmarked) [Example 157, 3-[4-(2-{3-[5-tert-butyl-2-(3-chloro-4-hydroxy-phenyl)-2H-pyrazol-3-yl]-ureidomethyl}-benzyloxy)-3-chloro-6-methyl-2-oxo-2H-pyridin-1-yl]-N-(2,3-dihydroxy-propyl)-4-methyl-benzamide] |
| 196 to 197 °C | Cc1ccc(C(=O)NCCO)cc1-n1c(C)cc(OCc2ccccc2CNC(=O)Nc2cc(C(C)(C)C)nn2-c2ccc(Cl)c(O)c2)c(Cl)c1=O [Example 162, 3-[4-(2-{3-[5-tert-butyl-2-(4-chloro-3-hydroxy-phenyl)-2H-pyrazol-3-yl]-ureidomethyl}-benzyloxy)-3-chloro-6-methyl-2-oxo-2H-pyridin-1-yl]-N-(2-hydroxy-ethyl)-4-methyl-benzamide] |
| 169 to 171 °C | Cc1ccc(C(=O)NCC(O)CO)cc1-n1c(C)cc(OCc2ccccc2CNC(=O)Nc2cc(C(C)(C)C)nn2-c2ccc(Cl)c(O)c2)c(Cl)c1=O (centres unmarked) [Example 168, 3-[4-(2-{3-[5-tert-Butyl-2-(4-chloro-3-hydroxy-phenyl)-2H-pyrazol-3-yl]-ureidomethyl}-benzyloxy)-3-chloro-6-methyl-2-oxo-2H-pyridin-1-yl]-N-(2,3-dihydroxy-propyl)-4-methyl-benzamide] |
| 143 to 145 °C | COCCNC(=O)c1ccc(C)c(-n2c(C)cc(OCc3ccccc3CNC(=O)Nc3cc(C(C)(C)C)nn3-c3cccc(OCCO)c3)c(Cl)c2=O)c1 [Example 173] |
| 164 to 165 °C | Cc1ccc(C(=O)NCCN(C)C)cc1-n1c(C)cc(OCc2ccccc2CNC(=O)Nc2cc(C(C)(C)C)nn2-c2cccc(OCCO)c2)c(Cl)c1=O [Example 174] |
